Data as given in patent US12527774B2, “Estrogen-related receptor alpha modulators” (LEAD PHARMA HOLDING B.V., priority 2019, dated 2026).

What was measured:
[1] = target: ERRα ligand binding domain (ERRα-LBD) (Homo sapiens (Human), UniProt P11474); assay: ERRα AlphaScreen Assay; type: biochemical; conditions: disruption of binding of ERRα-LBD protein to biotin-PGC1α-3 co-activator peptide; for IC50: read-out: mean pIC50 (converted)
How it was run: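 Disruption of co-activator binding read by AlphaScreen: compounds in triplicate, 1% DMSO, Tris pH 7.5 buffer, room temperature. Bacterially expressed 6His-SUMO-ERRα-LBD at 0.81 nM with beads for 1 h, then 15 nM biotinylated PGC1α peptide for 2 h. IC50 from four-parameter fits, averaged as pIC50.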

full length ERRα = full length ERRα (Homo sapiens (Human), UniProt P11474); assay: Full Length ERRα Reporter Gene Assay; type: cell-based; conditions: SK-BR-3 cells, ERRα-RE luciferase reporter, overnight incubation; for IC50: read-out: mean pIC50 (converted)
Source text: Full Length ERRα Reporter Gene Assay
A method was established to quantitatively screen the potency of compounds with inverse agonistic activity on the nuclear receptor ERRα of the human species. The assay allows intra-cellular screening of ERRα inverse agonists in SK-BR-3 cells using an over-expression construct coding full length ERRα and a reporter construct containing an ERRα Response Element (RE) and a luciferase gene for read out. The activity is expressed in log IC50 values and can be used to determine SAR of compound families or to de-select compounds.
In this assay, reporter cells are obtained by transient co-transfection of two constructs in SK-BR-3 cells using standard transfection techniques. The first construct contains a response element of the nuclear receptor ERRα (Plasmid pLP2175, Reporter construct ERRα-RE/luc2P, cloned variant of ERRα_v2_synthRE, Switchgear Genomics, Catalog Number S900089). This sequence drives the transcription of the luciferase reporter gene in response to binding of an ERRα protein encoded by the second construct (Plasmid pLP2124: full length ERRα expression construct using pcDNA3.1/Hygro(+) as background, Invitrogen Catalog Number V87020).
The day after transfection, cells were plated into 96 well plates, test compound was added and the plates were incubated overnight. Subsequently, the firefly luciferase activity was quantified using luciferase detection reagent and luminescence readout.
Detailed Assay Description
Transfection is performed on pre-seeded SK-BR-3 cells in a T175 flask. One transfected T175 flask is sufficient for seeding 3 to 4 MW96 plates the next day, depending on the confluency of the transfected cells.
Two different media are used in this protocol for cell treatment: 1) Culture medium, i.e. McCoy's 5a with phenol red (BioWhittaker Supplier Number 12-688F), 10% FBS and 1× Penstrep.; and, 2) Assay medium, i.e. McCoy's 5a Medium phenol red free (HyClone Product Code SH30270.01) with 2% Charcoal Stripped FBS and 1× Penstrep. Compound dilutions are prepared in assay medium.
Cells are seeded at least 2 days in advance to allow the cells to adhere well to flask before transfection. Cells should be 50-80% confluent at the day of transfection.
SKBR3 cells were transfected with the transcriptional reporter construct pLP2175 and the ERRα expression construct pLP2124 (as described above).
68 μL of Lipofectamine LTX transfection reagent (Invitrogen Catalog Number 15338-100) was added dropwise to 8.9 ml Opti-MEM I Reduced Serum Medium (Gibco Catalog Number 51985-026) and incubated at room temperature for 5 to 20 minutes. 8.9 ml of this reagent mixture was added to 22 μg pLP2175+22 μg pLP2124 (ratio 1:1 and total volume 10 ml), and incubated at room temperature for 25 minutes.
10 minutes before adding the transfection mix to SKBR3 cells in a T175 flask, the culture medium was refreshed with 20 mL culture medium. Subsequently, the 10 mL DNA-Opti-MEM-Lipofectamine mixture was gently added to the cells, followed by overnight (16-24 hours) incubation at 37° C. and 5% CO2.
To harvest SKBR3 cells from a T175 flask, first the medium was removed. Subsequently, cells were washed with Phosphate Buffered Saline (PBS) (Lonza), after which the PBS was removed. To dissociate the cells, 2 ml of TrypLE Express (Invitrogen) was added to the flask, followed by incubation at 37° C. for 5 minutes. The flask was tapped until cells were detached from the bottom. Cells were collected in 8 mL of culture medium (McCoy's 5α, 10% FBS, penstrep), to achieve a single cell suspension. After cell count, cells were spun down for 5 minutes at 300 g. Next cell pellets were re-suspended to 25000 cells/80 μl assay medium (McCoy's 5a phenol red free, 2% charcoal stripped FBS, penstrep).
For compound screening, the cells were harvested (as described above). 80 μL of cell suspension (25,000 cells) was plated per well into a white, flat bottom, tissue culture treated, 96 well screening plates (Greiner). […]

Sequence of full length ERRα (P11474 whole entry): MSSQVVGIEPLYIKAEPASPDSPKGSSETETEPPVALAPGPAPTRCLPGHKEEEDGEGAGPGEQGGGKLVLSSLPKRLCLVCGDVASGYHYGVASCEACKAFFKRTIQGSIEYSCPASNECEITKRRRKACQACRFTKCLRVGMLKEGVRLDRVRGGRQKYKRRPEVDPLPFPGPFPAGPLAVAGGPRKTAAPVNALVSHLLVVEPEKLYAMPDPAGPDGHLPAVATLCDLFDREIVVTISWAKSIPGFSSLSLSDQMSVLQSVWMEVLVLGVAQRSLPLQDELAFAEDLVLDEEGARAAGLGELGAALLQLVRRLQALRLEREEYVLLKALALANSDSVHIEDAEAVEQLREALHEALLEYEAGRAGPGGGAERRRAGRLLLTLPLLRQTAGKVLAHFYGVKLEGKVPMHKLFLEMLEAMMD
Sequence of ERRα ligand binding domain (ERRα-LBD) (P11474 193-421): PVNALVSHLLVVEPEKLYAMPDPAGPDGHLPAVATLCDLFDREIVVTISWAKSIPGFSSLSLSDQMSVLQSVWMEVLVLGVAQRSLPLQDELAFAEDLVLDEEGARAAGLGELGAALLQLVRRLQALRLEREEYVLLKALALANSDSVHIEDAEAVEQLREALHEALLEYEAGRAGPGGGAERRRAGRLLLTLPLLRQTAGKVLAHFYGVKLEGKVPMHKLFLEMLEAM

IC50 [1] | Structure (SMILES) | further results
10 to 100 nM | COc1cc(C2CC(=O)Nc3n[nH]cc32)ccc1OCc1ccc(O)cc1C(F)(F)F (single isomer, unassigned; (+)) [Example 209, (+)-4-(4-{[4-hydroxy-2-(trifluoromethyl)phenyl]methoxy}-3-methoxyphenyl)-2H,4H,5H,6H,7H-pyrazolo[3,4-b]pyridin-6-one] | –
100 to 1000 nM | COc1cc(-c2cc(=O)[nH]c3n[nH]cc23)ccc1OCc1ccncc1C(F)(F)F [Example 172, 4-(3-methoxy-4-{[3-(trifluoromethyl)pyridin-4-yl]methoxy}phenyl)-2H,6H, 7H-pyrazolo[3,4-b]pyridin-6-one] | –
10 to 100 nM | COc1ccc(COc2ccc(C3CC(=O)Nc4c[nH]nc43)cc2OC)c(C(F)(F)F)c1 (stereo not shown) [Example 92, 7-(3-methoxy-4-{[4-methoxy-2-(trifluoromethyl)phenyl]methoxy}phenyl)-2H,4H,5H,6H,7H-pyrazolo[4,3-b]pyridin-5-one] | –

Further lines, the molecule ahead of its results:

Structure (SMILES) | IC50 [1] | further results
COc1cc(C2CC(=O)Nc3n[nH]cc32)ccc1OCc1ccc(CCCO)cc1C(F)(F)F (stereo not shown) [Example 149, 4-(4-{[4-(3-hydroxypropyl)-2-(trifluoromethyl)phenyl]methoxy}-3-methoxyphenyl)-2H,4H,5H,6H, 7H-pyrazolo[3,4-b]pyridin-6-one] | – | mean pIC50 [1]: ≥ 8; IC50 (full length ERRα): ≤ 316 nM
COc1cc(C2CC(=O)Nc3n[nH]cc32)ccc1OCc1ccc(CCO)cc1C(F)(F)F (single isomer, unassigned; (-)) [Example 212, (−)-4-(4-{[4-(2-hydroxyethyl)-2-(trifluoromethyl)phenyl]methoxy}-3-methoxyphenyl)-2H,4H,5H,6H,7H-pyrazolo[3,4-b]pyridin-6-one] | – | mean pIC50 (full length ERRα): ≥ 6.5
COc1ccc(COc2ccc(C3CC(=O)Nc4[nH]nnc43)cc2OC)c(C(F)(F)F)c1 (single isomer, unassigned; (-)) [Example 202, (−)-7-(3-methoxy-4-{[4-methoxy-2-(trifluoromethyl)phenyl]methoxy}phenyl)-3H,4H,5H,6H,7H-[1,2,3]triazolo[4,5-b]pyridin-5-one] | – | IC50 (full length ERRα): ≤ 316 nM
COc1ccc(COc2ccc(C3CC(=O)Nc4n[nH]cc43)cc2OC)c(C(F)(F)F)c1 (single isomer, unassigned; (-)) [Example 198, (−)-4-(3-methoxy-4-{[4-methoxy-2-(trifluoromethyl)phenyl]methoxy}phenyl)-2H,4H,5H,6H,7H-pyrazolo[3,4-b]pyridin-6-one] | – | IC50 (full length ERRα): ≤ 316 nM
COc1cc(C2CC(=O)Nc3n[nH]cc32)ccc1OCc1ccc(C(C)=O)cc1C(F)(F)F (single isomer, unassigned; (-)) [Example 200, (−)-4-(4-{[4-acetyl-2-(trifluoromethyl)phenyl]methoxy}-3-methoxyphenyl)-2H,4H,5H,6H,7H-pyrazolo[3,4-b]pyridin-6-one] | – | IC50 (full length ERRα): ≤ 316 nM
CCc1ccc(COc2ccc(C3CC(=O)Nc4n[nH]cc43)cc2OC)c(C(F)(F)F)c1 (single isomer, unassigned; (+)) [Example 207, (+)-4-(4-{[4-ethyl-2-(trifluoromethyl)phenyl]methoxy}-3-methoxyphenyl)-2H,4H,5H,6H,7H-pyrazolo[3,4-b]pyridin-6-one] | – | IC50 (full length ERRα): ≤ 316 nM
COc1cc(C2CC(=O)Nc3n[nH]cc32)ccc1OCc1cc(Cl)ccc1Cl (stereo not shown) [Example 29, 4-{4-[(2,5-dichlorophenyl)methoxy]-3-methoxyphenyl}-2H,4H,5H,6H, 7H-pyrazolo[3,4-b]pyridin-6-one] | 100 to 1000 nM | –
O=C1CC(c2ccc(OCc3ccccc3C(F)(F)F)c([N+](=O)[O-])c2)c2c[nH]nc2N1 (stereo not shown) [Example 67, 4-(3-nitro-4-{[2-(trifluoromethyl)phenyl]methoxy}phenyl)-2H,4H,5H,6H,7H-pyrazolo[3,4-b]pyridin-6-one] | 100 to 1000 nM | –
CCOC(=O)c1ccccc1COc1ccc(C2CC(=O)Nc3n[nH]cc32)cc1OC (stereo not shown) [Example 48, ethyl 2-[(2-methoxy-4-{6-oxo-2H,4H,5H, 6H,7H-pyrazolo[3,4-b]pyridin-4-yl}phenoxy)methyl]benzoate] | 100 to 1000 nM | –
COc1cc(C2CC(=O)Nc3n[nH]cc32)ccc1COc1ccc(C)cc1C (single isomer, unassigned; (-)) [Example 220, (−)-4-{4-[(2,4-dimethylphenoxy)methyl]-3-methoxyphenyl}-2H,4H,5H,6H,7H-pyrazolo[3,4-b]pyridin-6-one] | – | mean pIC50 [1]: ≥ 8
COc1cc(C2CC(=O)Nc3n[nH]cc32)ccc1OCc1ccc(N(C)C)cc1C(F)(F)F (stereo not shown) [Example 138, 4-(4-{[4-(dimethylamino)-2-(trifluoromethyl)phenyl]methoxy}-3-methoxyphenyl)-2H,4H,5H,6H, 7H-pyrazolo[3,4-b]pyridin-6-one] | – | mean pIC50 [1]: ≥ 8
COc1cc(C2CC(=O)Nc3n[nH]cc32)ccc1OCc1ccc(CC(C)(C)O)cc1C(F)(F)F (stereo not shown) [Example 153, 4-(4-{[4-(2-hydroxy-2-methylpropyl)-2-(trifluoromethyl)phenyl]methoxy}-3-methoxyphenyl)-2H,4H,5H,6H,7H-pyrazolo[3,4-b]pyridin-6-one] | 10 to 100 nM | –
COc1cc(C2CC(=O)Nc3n[nH]cc32)ccc1OCc1cc2c(cc1Br)OCO2 (stereo not shown) [Example 43, 4-{4-[(6-bromo-2H-1,3-benzodioxol-5-yl)methoxy]-3-methoxyphenyl}-2H,4H,5H,6H, 7H-pyrazolo[3,4-b]pyridin-6-one] | 10 to 100 nM | –
COc1cc(C2CC(=O)Nc3n[nH]cc32)ccc1COc1ccc(C(F)(F)F)cc1C(F)F (single isomer, unassigned; (-)) [Example 216, (−)-4-(4-{[2-(difluoromethyl)-4-(trifluoromethyl)phenoxy]methyl}-3-methoxyphenyl)-2H,4H,5H,6H,7H-pyrazolo[3,4-b]pyridin-6-one] | 10 to 100 nM | –
O=C1CC(c2ccc(COc3ccc(F)cc3C(F)(F)F)c(OC(F)(F)F)c2)c2c[nH]nc2N1 (stereo not shown) [Example 110, 4-(4-{[4-fluoro-2-(trifluoromethyl)phenoxy]methyl}-3-(trifluoromethoxy)phenyl)-2H,4H,5H,6H, 7H-pyrazolo[3,4-b]pyridin-6-one] | 100 to 1000 nM | –
COc1cc(C2CC(=O)Nc3n[nH]cc32)ccc1OCc1ccc(CC(=O)O)cc1C(F)(F)F (stereo not shown) [Example 151, 2-{4-[(2-methoxy-4-{6-oxo-2H,4H,5H,6H, 7H-pyrazolo[3,4-b]pyridin-4-yl}phenoxy)methyl]-3-(trifluoromethyl)phenyl}acetic acid] | 100 to 1000 nM | –
COc1cc(C2CC(=O)Nc3n[nH]cc32)ccc1COc1cc(C)cc(C)c1 (stereo not shown) [Example 113, 4-{4-[(3,5-dimethylphenoxy)methyl]-3-methoxyphenyl}-2H,4H,5H,6H,7H-pyrazolo[3,4-b]pyridin-6-one] | 100 to 1000 nM | –
O=C1CC(c2ccc(OCc3ccccc3C(F)(F)F)cc2F)c2c[nH]nc2N1 (stereo not shown) [Example 66, 4-(2-fluoro-4-{[2-(trifluoromethyl)phenyl]methoxy}phenyl)-2H,4H,5H,6H, 7H-pyrazolo[3,4-b]pyridin-6-one] | 100 to 1000 nM | –
